Structures can show the parent of a compound that is named as a salt.
Key:
[1] = system: cells of the large-cell lung carcinoma of the tumor line LXFL-529L; experiment: Tumor cell growth inhibition, SRB-assay, LXFL-529L; assay type: cell-based; details: 50% growth inhibition, three days incubation in serum-containing medium
[2] = system: cells of the mammary carcinoma cell line MCF-7; experiment: Tumor cell growth inhibition, SRB-assay, MCF-7; assay type: cell-based; details: 50% growth inhibition, three days incubation in serum-containing medium

CC(C)c1ccc2c(c1)C(=C1Nc3ccccc3C1=NO)C(=O)N2 [Example 27, 5-isopropyl-indirubin-3′-monooxime] showed an IC50 [1] of 5.5 ± 0.6 µM and an IC50 [2] of 5 ± 0.9 µM.

Work on CNC(=O)Cc1ccc2c(c1)C(=C1Nc3ccccc3C1=O)C(=O)N2 [Example 9, N-methyl-2-[3-(3′-oxo-(2′H3′H)indol-2′-ylidene)-(2H3H)indol-2-one-5-yl]-acetamide] yielded an IC50 [1] of 11.5 ± 0.6 µM and an IC50 [2] of 17 ± 1 µM.

“3-[3′-[iminooxy-O-(N-(1-deoxy-glucitol)-2-amino-ethyl)]-(2H′3H′)indol-2′-ylidene]-5-methyl-(2H3H)indol-2-one [Example 69]” showed an IC50 [1] of 3.5 ± 0.7 µM and an IC50 [2] of 2.5 ± 0.9 µM.

CCCc1ccc2c(c1)C(=C1Nc3ccccc3C1=O)C(=O)N2 [Example 4, 5-n-propyl-indirubin] gave an IC50 [1] of 7 ± 0.4 µM and an IC50 [2] of 6.5 ± 0.5 µM.

“3-{3′-[iminooxy-O-(2-D-galactopyranosylethyl)]-(2′H3′H)indol-2′-ylidene}-(2H3H)indol-2-one [Example 47]” was tested, and the IC50 [1] was 17 ± 1.2 µM and the IC50 [2] was 9.5 ± 0.9 µM.

Work on “3-{3′-[iminooxy-O-(2-L-arabinopyranosylethyl)]-(2′H3′H)indol-2′-ylidene}-(2H3H)indol-2-one [Example 49]” yielded an IC50 [1] of 20.5 ± 1.4 µM and an IC50 [2] of 5 ± 0.7 µM.

Compound O=C1Nc2ccccc2C1=C1Nc2ccccc2C1=NOCCN[C@H]1C(O)O[C@H](CO)[C@H](O)[C@@H]1O (some centres unmarked) [Example 57, 3-{3′-[iminooxy-O-(N-(2-deoxy-galactose)-2-amino-ethyl)]-(2′H3′H)indol-2′-ylidene}-(2H3H)indol-2-one] has an IC50 [1] of 23 ± 1.4 µM.

Compound CN(C)C(=O)ON=C1C(=C2C(=O)Nc3ccccc32)Nc2ccccc21 [Example 41, 3-{3′-[iminooxy-O-((N,N)-dimethyl-carbamoyl)]-(2′H3′H)indol-2′-ylidene}-(2H3H)indol-2-one] has an IC50 [1] of 5 ± 0.6 µM and an IC50 [2] of 7.5 ± 0.9 µM.

NCCNC(=O)Cc1ccc2c(c1)C(=C1Nc3ccccc3C1=O)C(=O)N2 [Example 8, N-(2-amino-ethyl)-2-[3-(3′-oxo-(2′H3′H)indol-2′-ylidene)-(2H3H)indol-2-one-5-yl]-acetamide] gave an IC50 [1] of 3.5 ± 0.7 µM and an IC50 [2] of 4 ± 0.6 µM.

For O=C(O)CCC(=O)Nc1ccc2c(c1)C(=C1Nc3ccccc3C1=O)C(=O)N2 [Example 17, [3-(3′-oxo-(2′H3′H)indol-2′-ylidene)-(2H3H)indol-2-one-5-yl]-succinamic acid], the IC50 [1] was 12.5 ± 0.7 µM and the IC50 [2] was 14 ± 0.9 µM.

“3-{3′-[iminooxy-O-(2-(2-amino-ethyl)-amino-ethyl)]-(2′H3′H)indol-2′-ylidene}-(2H3H)indol-2-one [Example 66]” showed an IC50 [1] of 7 ± 0.6 µM and an IC50 [2] of 8 ± 1.2 µM.

Compound O=C1Nc2ccc(CP(=O)(O)O)cc2C1=C1Nc2ccccc2C1=O [Example 13, [3-(3′-oxo-(2′H3′H)indol-2′-ylidene)-(2H3H)indol-2-one-5-yl]-methyl-phosphonic Acid] has an IC50 [1] of 8.5 ± 0.8 µM and an IC50 [2] of 6.5 ± 1 µM.

For CCOC(=O)CON=C1C(=C2C(=O)Nc3ccccc32)Nc2ccccc21 [Example 40, ethyl-2{O-[2′-(2-oxo-(2H3H)indol-3-ylidene)-(2′H3′H)indol-3′-ylidene]-aminooxy}-acetate], the IC50 [1] was 6 ± 0.4 µM and the IC50 [2] was 10 ± 0.7 µM.

With O=C(O)CCCCON=C1C(=C2C(=O)Nc3ccccc32)Nc2ccccc21 [Example 38, 5{O-[2′-(2-oxo-(2H3H)indol-3-ylidene)-(2′H3′H)indol-3′-ylidene]-aminooxy}-pentanoic Acid (Sodium Salt)] the IC50 [1] was 14 ± 0.8 µM and the IC50 [2] was 14 ± 0.7 µM.

CCOC(=O)ON=C1C(=C2C(=O)Nc3ccccc32)Nc2ccccc21 [Example 39, 3-[3′-(iminooxy-O-carbethoxy)-(2′H3′H)indol-2′-ylidene]-(2H3H)indol-2-one] showed an IC50 [1] of 4.5 ± 0.7 µM and an IC50 [2] of 10 ± 0.9 µM.

NCC(=O)Nc1ccc2c(c1)C(=C1Nc3ccccc3C1=O)C(=O)N2 [Example 18, 2-amino-N-[3-(3′-oxo-(2′H3′H)indol-2′-ylidene)-(2H3H)indol-2-one-5-yl]-acetamide] showed an IC50 [1] of 4 ± 0.4 µM and an IC50 [2] of 3 ± 0.3 µM.

O=C1Nc2ccccc2C1=C1Nc2ccccc2C1=NOCCNCCO [Example 59, 3-{3′-[iminooxy-O-(N-hydroxyethyl-2-amino-ethyl)]-(2′H3′H)indol-2′-ylidene}-(2H3H)indol-2-one] was tested, and the IC50 [1] was 11.6 ± 0.8 µM and the IC50 [2] was 13.6 ± 1.2 µM.

O=C1Nc2ccc(CC(=O)N3CCNCC3)cc2C1=C1Nc2ccccc2C1=O [Example 6, 5-[2-(piperazin-1-yl)-ethan-2-one-1-yl]-indirubin] gave an IC50 [1] of 4 ± 0.5 µM and an IC50 [2] of 8 ± 0.9 µM.

Work on O=C1Nc2ccc(NCCO)cc2C1=C1Nc2ccccc2C1=O [Example 21, 5-(2-hydroxy-ethyl)-amino-indirubin] yielded an IC50 [1] of 3 ± 0.5 µM and an IC50 [2] of 5 ± 0.6 µM.

With “3-[3′-[iminooxy-O-(2-D-glucopyranosylethyl)]-(2H′3H′)indol-2′-ylidene]-5-methyl-(2H3H)indol-2-one [Example 68]” the IC50 [1] was 17 ± 0.8 µM and the IC50 [2] was 2.5 ± 0.8 µM.

With O=C(O)Cc1ccc2c(c1)C(=C1Nc3ccccc3C1=O)C(=O)N2 [Example 5, 5-(carboxymethyl)-indirubin] the IC50 [2] was 19.5 ± 1.4 µM.

CC(C)c1ccc2c(c1)/C(=C1/Nc3ccccc3C1=O)C(=O)N2 [Example 3, 5-isopropyl-indirubin] gave an IC50 [1] of 4 ± 0.2 µM and an IC50 [2] of 0.5 ± 0.2 µM.

In the case of CC(=O)Nc1ccc2c(c1)C(=C1Nc3ccccc3C1=NO)C(=O)N2 [Example 29, 5-acetylamino-indirubin-3′-monooxime], the IC50 [1] is reported as 4 ± 0.9 µM and the IC50 [2] is reported as 5 ± 0.5 µM.

“3-{3′-[iminooxy-O-((N,N)-bis(hydroxyethyl)-4-amino-butyl)]-(2H3H)indol-2′-ylidene}-(2H3H)indol-2-one [Example 61]” showed an IC50 [1] of 8 ± 0.3 µM and an IC50 [2] of 12.4 ± 0.7 µM.

CN(C)C(=O)CON=C1C(=C2C(=O)Nc3ccccc32)Nc2ccccc21 [Example 43, N,N-dimethyl-2{O-[2′-(2-oxo-(2H3H)indol-3-ylidene)-(2′H3′H)indol-3′-ylidene]-aminooxy}-acetamide] gave an IC50 [1] of 7 ± 1.1 µM and an IC50 [2] of 9.2 ± 0.9 µM.

With CCOP(=O)(Cc1ccc2c(c1)C(=C1Nc3ccccc3C1=O)C(=O)N2)OCC [Example 14, diethyl-{[3-(3′-oxo-(2′H3′H)indol-2′-ylidene)-(2H3H)indol-2-one-5-yl]-methyl}-phosphonate] the IC50 [1] was 6.5 ± 1.2 µM and the IC50 [2] was 6 ± 1.1 µM.

Compound O=C(O)CCON=C1C(=C2C(=O)Nc3ccccc32)Nc2ccccc21 [Example 36, 3-{O-[2′-(2-oxo-(2H3H)indol-3-ylidene)-(2′H3′H)indol-3′-ylidene]-aminooxy}-propionic Acid (Sodium Salt)] has an IC50 [2] of 16 ± 0.7 µM.

O=C1Nc2ccccc2C1=C1Nc2ccccc2C1=NOCCOCCO [Example 33, 3-{3′-[iminooxy-O-(2-(2-hydroxy-ethoxy)-ethyl)]-(2′H3′H)indol-2′-ylidene}-(2H3H)indol-2-one] was tested, and the IC50 [1] was 2 ± 0.4 µM and the IC50 [2] was 2.5 ± 0.5 µM.

Compound COC(=O)CNC(=O)Cc1ccc2c(c1)C(=C1Nc3ccccc3C1=O)C(=O)N2 [Example 12, methyl-2-{2-[3-(3′-oxo-(2′H3′H)indol-2′-ylidene)-(2H3H)indol-2-one-5-yl]-acetylamino}-acetate] has an IC50 [1] of 8 ± 0.8 µM and an IC50 [2] of 6.5 ± 1.2 µM.

Work on CC(C)(O)CON=C1C(=C2C(=O)Nc3ccccc32)Nc2ccccc21 [Example 34, 3-{3′-[iminooxy-O-((2-hydroxy-2-methyl)-propyl)]-(2′H3′H)indol-2′-ylidene}-(2H3H)indol-2-one] yielded an IC50 [1] of 2 ± 0.5 µM and an IC50 [2] of 2 ± 0.3 µM.

“3-{3′-[iminooxy-O-(2-(2-amino-2-deoxy-D-glucopyranosyl)-ethyl)]-(2′H3′H)indol-2′-ylidene}-(2H3H)indol-2-one [Example 53]” gave an IC50 [1] of 15 ± 0.9 µM and an IC50 [2] of 7 ± 0.7 µM.

O=C1Nc2ccccc2C1=C1Nc2ccccc2C1=NOCCN1CCNCC1 [Example 63, 3-{3′-[iminooxy-O-(2-(piperazin-1-yl)-ethyl)]-(2′H3′H)indol-2′-ylidene}-(2H3H)indol-2-one] gave an IC50 [1] of 8 ± 0.6 µM and an IC50 [2] of 9.5 ± 0.8 µM.

Work on CC(=O)Nc1ccc2c(c1)C(=C1Nc3ccccc3C1=O)C(=O)N2 [Example 16, 5-acetylamino-indirubin] yielded an IC50 [1] of 10 ± 0.8 µM.

O=C1Nc2ccccc2C1=C1Nc2ccccc2C1=NOCCN1CCOCC1 [Example 64, 3-{3′-[iminooxy-O-(2-(morpholin-4-yl)-ethyl)]-(2′H3′)indol-2′-ylidene}-(2H3H)indol-2-one] gave an IC50 [1] of 10 ± 0.6 µM and an IC50 [2] of 9 ± 1.2 µM.

O=C1Nc2ccccc2C1=C1Nc2ccccc2C1=NOCCN[C@H]1C(O)O[C@H](CO)[C@@H](O)[C@@H]1O (some centres unmarked) [Example 56, 3-{3′-[iminooxy-O-(N-(2-deoxy-glucose)-2-amino-ethyl)]-(2′H3′H)indol-2′-ylidene}-(2H3H)indol-2-one] showed an IC50 [1] of 12 ± 1.3 µM and an IC50 [2] of 14 ± 1.2 µM.

With O=C(O)CCCON=C1C(=C2C(=O)Nc3ccccc32)Nc2ccccc21 [Example 37, 4-{O-[2′-(2-oxo-(2H3H)indol-3-ylidene)-(2′H3′H)indol-3′-ylidene]-aminooxy}-butyric Acid (Sodium Salt)] the IC50 [1] was 12 ± 1 µM and the IC50 [2] was 14 ± 1.1 µM.

Cc1ccc2c(c1)C(=C1Nc3ccccc3C1=NOCCO)C(=O)N2 [Example 67, 3-[3′-[iminooxy-O-(2-hydroxy-ethyl)]-(2H′3H′)indol-2′-ylidene]-5-methyl-(2H3H)indol-2-one] was tested, and the IC50 [1] was 1 ± 0.5 µM and the IC50 [2] was 1.5 ± 0.6 µM.

In the case of “3-{3′-[iminooxy-O-(2-(2-amino-2-deoxy-D-galactopyranosyl)-ethyl)]-(2′H3′H)indol-2′-ylidene}(2H3H)indol-2-one [Example 54]”, the IC50 [1] is reported as 16 ± 1.1 µM and the IC50 [2] is reported as 9 ± 0.9 µM.

In the case of “3-{3′-[iminooxy-O-(3-D-glucopyranosylpropyl)]-(2′H3′H)indol-2′-ylidene}-(2H3H)indol-2-one [Example 45]”, the IC50 [1] is reported as 19 ± 0.9 µM and the IC50 [2] is reported as 10.5 ± 0.6 µM.

Compound CN(C)C(=O)Cc1ccc2c(c1)C(=C1Nc3ccccc3C1=O)C(=O)N2 [Example 10, N,N-dimethyl-2-[3-(3′-oxo-(2′H3′H)indol-2′-ylidene)-(2H3H)indol-2-one-5-yl]-acetamide] has an IC50 [1] of 16 ± 0.9 µM and an IC50 [2] of 20 ± 1.3 µM.

Compound CN1CCN(CCON=C2C(=C3C(=O)Nc4ccccc43)Nc3ccccc32)CC1 [Example 65, 3-{3′-[iminooxy-O-(2-(4-methyl-piperazin-1-yl)-ethyl)]-(2′H3′H)indol-2′-ylidene}-(2H3H)indol-2-one] has an IC50 [2] of 7.5 ± 0.8 µM.
